# From paper PMC5563523, “Discovery of a ROCK inhibitor, FPND, which prevents cerebral hemorrhage through maintaining vascular integrity by interference with VE-cadherin” (Cell Death Discovery, 2017)
# Biological target: ROCK1 (Homo sapiens, UniProt Q13464)
# Assay: Z'-LYTE kinase assay with ROCK1 enzyme, peptide substrate and […] ATP
# Assay type: biochemical
# Sequence of ROCK1 (Q13464 2-1354): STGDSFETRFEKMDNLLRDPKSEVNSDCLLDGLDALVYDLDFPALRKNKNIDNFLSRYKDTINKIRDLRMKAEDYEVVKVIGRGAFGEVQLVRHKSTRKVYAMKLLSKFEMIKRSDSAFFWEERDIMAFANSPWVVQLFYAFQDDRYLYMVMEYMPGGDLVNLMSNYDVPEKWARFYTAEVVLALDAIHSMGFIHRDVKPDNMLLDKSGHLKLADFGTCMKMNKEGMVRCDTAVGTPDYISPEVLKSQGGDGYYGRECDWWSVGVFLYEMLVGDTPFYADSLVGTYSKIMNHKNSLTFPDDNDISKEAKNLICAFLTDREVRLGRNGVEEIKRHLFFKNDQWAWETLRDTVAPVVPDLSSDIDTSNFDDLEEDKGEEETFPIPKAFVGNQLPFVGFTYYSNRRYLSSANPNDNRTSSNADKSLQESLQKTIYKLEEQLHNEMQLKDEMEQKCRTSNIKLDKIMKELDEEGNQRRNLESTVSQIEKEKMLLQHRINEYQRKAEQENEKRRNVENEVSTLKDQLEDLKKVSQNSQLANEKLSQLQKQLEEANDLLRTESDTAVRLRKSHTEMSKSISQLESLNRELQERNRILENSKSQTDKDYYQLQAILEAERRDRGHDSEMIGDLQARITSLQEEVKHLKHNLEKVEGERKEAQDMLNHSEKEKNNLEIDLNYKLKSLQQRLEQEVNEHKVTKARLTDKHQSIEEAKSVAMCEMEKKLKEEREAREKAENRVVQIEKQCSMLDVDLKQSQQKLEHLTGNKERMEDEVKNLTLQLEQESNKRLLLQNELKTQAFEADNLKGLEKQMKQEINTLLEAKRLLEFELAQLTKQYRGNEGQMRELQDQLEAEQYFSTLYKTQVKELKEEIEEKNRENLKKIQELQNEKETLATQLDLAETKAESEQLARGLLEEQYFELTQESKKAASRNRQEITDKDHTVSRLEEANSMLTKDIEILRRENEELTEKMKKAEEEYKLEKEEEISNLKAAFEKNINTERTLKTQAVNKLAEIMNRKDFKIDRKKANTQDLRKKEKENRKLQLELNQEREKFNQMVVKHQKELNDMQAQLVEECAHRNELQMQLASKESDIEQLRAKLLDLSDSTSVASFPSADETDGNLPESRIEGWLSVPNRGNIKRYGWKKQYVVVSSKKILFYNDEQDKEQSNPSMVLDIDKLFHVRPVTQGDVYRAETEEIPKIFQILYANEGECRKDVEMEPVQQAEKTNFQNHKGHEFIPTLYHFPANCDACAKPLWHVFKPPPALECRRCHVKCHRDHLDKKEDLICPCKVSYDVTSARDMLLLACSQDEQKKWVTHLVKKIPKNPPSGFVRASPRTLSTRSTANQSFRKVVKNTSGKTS
structure (smiles),measurement,value
"Nc1nc(CN2CCN(c3ccccc3F)CC2)nc(Nc2cccc3ccccc23)n1 [FPND, 6-[4-(2-fluorophenyl)-1-piperazinyl]methyl-N-1-naphthyl-1,3,5-triazine-2,4-diamine]",IC50,11.2 ± 2.2 µM
